Data on three molecules can be found in patent publication US20180185309A1, “METHODS AND COMPOSITIONS FOR TREATING NEPHROPATHY” (The Regents of the University of California, priority 2015, published 2018).

SMILES strings stand for the structures.

The conditions of series [1]: chemical chaperones that inhibit ER stress; cited from earlier work.
The next series addresses T1, sEH (Homo sapiens, UniProt P34913).
T1 sequence (P34913 1-555): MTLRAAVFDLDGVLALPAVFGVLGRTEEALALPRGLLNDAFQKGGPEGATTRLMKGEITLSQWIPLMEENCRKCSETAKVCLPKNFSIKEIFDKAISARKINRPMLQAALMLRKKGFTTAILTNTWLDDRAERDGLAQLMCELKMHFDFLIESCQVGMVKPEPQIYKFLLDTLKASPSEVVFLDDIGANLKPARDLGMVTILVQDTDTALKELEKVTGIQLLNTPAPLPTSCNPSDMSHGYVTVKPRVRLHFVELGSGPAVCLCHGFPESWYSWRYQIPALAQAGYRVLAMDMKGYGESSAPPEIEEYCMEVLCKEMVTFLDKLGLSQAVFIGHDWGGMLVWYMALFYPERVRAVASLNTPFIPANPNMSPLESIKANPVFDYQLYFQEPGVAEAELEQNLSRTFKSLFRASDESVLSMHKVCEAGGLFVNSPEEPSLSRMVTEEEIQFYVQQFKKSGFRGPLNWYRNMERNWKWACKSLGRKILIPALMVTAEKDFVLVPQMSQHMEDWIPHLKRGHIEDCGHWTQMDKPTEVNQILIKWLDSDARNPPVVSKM
Briefly: sEH inhibition, assay not specified. In kind it is biochemical. From the text: “Soluble epoxide hydrolase” (“sEH”) is an epoxide hydrolase which in endothelial and smooth muscle cells converts EETs to dihydroxy derivatives called dihydroxyeicosatrienoic acids (“DHETs”). The cloning and sequence of the murine sEH is set forth in Grant et al., J. Biol. Chem. 268(23):17628-17633 (1993). The cloning, sequence, and accession numbers of the human sEH sequence are set forth in Beetham et al., Arch. Biochem. Biophys. 305(1):197-201 (1993). The amino acid sequence of human sEH is SEQ ID NO.:1, while the nucleic acid sequence encoding the human sEH is SEQ ID NO.:2. (The sequence set forth as SEQ ID NO.:2 is the coding portion of the sequence set forth in the Beetham et al. 1993 paper and in the NCBI Entrez Nucleotide Browser at accession number L05779, which include the 5′ untranslated region and the 3′ untranslated region.) The evolution and nomenclature of the gene is discussed in Beetham et al., DNA Cell Biol. 14(1):61-71 (1995). Soluble epoxide hydrolase represents a single highly conserved gene product with over 90% homology between rodent and human (Arand et al., FEBS Lett., 338:251-256 (1994)). Unless otherwise specified, as used herein, the terms “soluble epoxide hydrolase” and “sEH” refer to human sEH. […]

Series [2] in a line: Metabolic stability, method not specified. Format: in vitro ADME.

With `C[C@H](CCC(=O)NCCS(=O)(=O)O)[C@H]1CC[C@H]2[C@@H]3[C@@H](O)C[C@@H]4C[C@H](O)CC[C@]4(C)[C@H]3CC[C@]12C` [TUDCA, tauroursodeoxycholic acid], the DN disease progression entry in series [1] is reported as “slow DN disease progression”.

As for `CCCCCCCCCCCCNC(=O)NC12CC3CC(CC(C3)C1)C2` [ADU, N-Adamantyl-N′-dodecyl urea], the “activity on sEH” value at sEH is on record as “particularly high activity”. Also, in series [2], the metabolic stability result is “metabolically stable”. With `O=C(O)CCCc1ccccc1` [4-PBA, 4-phenyl butyric acid], the DN disease progression result in series [1] was “slow DN disease progression”.
